Assay [1] deals with T1, NRAS WT (Homo sapiens (Human), UniProt P01111+P62937). In words: Ras-Raf disruption/FRET/MOA assay, NRAS WT. Type of assay: biochemical. To be noted: read-out: NRAS WT FRET IC50. The source says: (§1) Disruption of B-Raf Ras-Binding Domain (BRAF^RBD) Interaction with K-Ras by Compounds of the Invention (Also Called a FRET Assay or an MOA Assay)
(§2) Note—The following protocol describes a procedure for monitoring disruption of K-Ras G12C (GMP-PNP) binding to BRAF^RBD by a compound of the invention. This protocol may also be executed substituting other Ras proteins or nucleotides, such as K-Ras G12D and K-Ras G13D.
(§3) The purpose of this biochemical assay was to measure the ability of test compounds to facilitate ternary complex formation between a nucleotide-loaded K-Ras isoform and Cyclophilin A; the resulting ternary complex disrupts binding to a BRAF^RBD construct, inhibiting K-Ras signaling through a RAF effector. Data is reported as IC50 values.
(§4) In assay buffer containing 25 mM HEPES pH 7.3, 0.002% Tween20, 0.1% BSA, 100 mM NaCl and 5 mM MgCl2, tagless Cyclophilin A, His6-K-Ras-GMPPNP, and GST-BRAF^RBD were combined in a 384-well assay plate at final concentrations of 25 μM, 12.5 nM, and 50 nM, respectively. Compound was present in plate wells as a 10-point 3-fold dilution series starting at a final concentration of 30 μM. After incubation at 25° C. for 3 hours, a mixture of anti-His Eu—W1024 and anti-GST allophycocyanin was then added to assay sample wells at final concentrations of 10 nM and 50 nM, respectively, and the reaction incubated for an additional 1.5 hours. […] Compounds that facilitate disruption of a K-Ras: RAF complex were identified as those eliciting a decrease in the TR-FRET ratio relative to DMSO control wells.

The target of assay [2] is T2, NRAS Q61K (Homo sapiens (Human), UniProt P01111+P62937, Q61K). As to the kind of experiment: Ras-Raf disruption/FRET/MOA assay, NRAS Q61K. The class given is biochemical. The note with it: read-out: NRAS Q61K FRET data IC50.
From the text: as §1, §2, §3, §4

Assay [3] has as its target T3, NRAS Q61R (Homo sapiens (Human), UniProt P01111+P62937, Q61R). As to the kind of experiment: Ras-Raf disruption/FRET/MOA assay, NRAS Q61R. Type of assay: biochemical. To be noted: read-out: NRAS Q61R FRET data IC50.
From the text: as §1, §2, §3, §4

The subject of assay [4] is NCI-H358 cells (K-Ras G12C). In words: CellTiter-Glo cell viability, NCI-H358. Type of assay: cell-based, human. To be noted: Homo sapiens, NCI-H358, 120 h, K-Ras G12C, 5-day treatment; read-out: H358 Cell Viability IC50. A digest of the protocol: (§5)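 Luminescence read on day 5 after ~30 min room-temperature equilibration; compounds added directly to plated cells. Values = (sample signal/avg DMSO)*100, four-parameter logistic fit.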
For orientation: Cellular ATP, detected with luciferase, serves as a proxy for viable cell number.

Assay [5] relates to Capan-1 cells (K-Ras G12V). As to the kind of experiment: CellTiter-Glo cell viability, Capan-1. Type of assay: cell-based, human. The note with it: Homo sapiens, CAPAN-1, 120 h, K-Ras G12V, 5-day treatment; read-out: Capan-1 Cell Viability IC50. A digest of the protocol:
as §5

Assay [6] has as its target KRAS G12C (Homo sapiens (Human), UniProt P01116+P62937, G12C). In words: Ras-Raf disruption/FRET/MOA assay (BRAF RBD, Cyclophilin A). The class given is biochemical. The note with it: read-out: KRAS G12C FRET IC50. The essentials:
(§6)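 25 μM tagless Cyclophilin A, 12.5 nM His6-Ras-GMPPNP and 50 nM GST-BRAF RBD in HEPES pH 7.3 buffer with 5 mM MgCl2, with compound (10-point 3-fold series from 30 μM final) for 3 h at 25 °C. Anti-His Eu and anti-GST APC then added for 1.5 h. IC50 from TR-FRET ratio decrease versus DMSO.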

The target of assay [7] is KRAS G12D (Homo sapiens (Human), UniProt P01116+P62937, G12D). Described as above. Type of assay: biochemical. The note with it: read-out: KRAS G12D FRET IC50. The essentials: as §6
The target in assay [8] is KRAS G12S (Homo sapiens (Human), UniProt P01116+P62937, G12S). The assay is described as above. The class given is biochemical. The note with it: read-out: KRAS G12S FRET IC50. The essentials:
as §6

Assay [9] concerns the target KRAS G12V (Homo sapiens (Human), UniProt P01116+P62937, G12V). The assay is described as above. The note with it: read-out: KRAS G12V FRET IC50. Type of assay: biochemical. A digest of the protocol:
as §6

Assay [10] has as its target KRAS G13C (Homo sapiens (Human), UniProt P01116+P62937, G13C). The description is as above. Type of assay: biochemical. The note with it: read-out: KRAS G13C FRET IC50. The essentials: as §6
Assay [11] concerns the target KRAS G13D (Homo sapiens (Human), UniProt P01116+P62937, G13D). Described as above. Type of assay: biochemical. The note with it: read-out: KRAS G13D FRET data IC50. The essentials: as §6
Assay [12] addresses KRAS Q61H (Homo sapiens (Human), UniProt P01116+P62937, Q61H). The assay is described as above. The class given is biochemical. The essentials:
as §6

The target of assay [13] is KRAS WT (Homo sapiens (Human), UniProt P01116+P62937). The assay is described as above. The class given is biochemical. To be noted: read-out: KRAS WT FRET data IC50. The essentials: as §6
Assay [14] concerns the target NRAS G12C (Homo sapiens (Human), UniProt P01111+P62937, G12C). Described as above. The class given is biochemical. The note with it: read-out: NRAS G12C FRET data IC50. The essentials: (§7)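 Measured: compound-facilitated Cyclophilin A:Ras complex blocking RAF RBD binding. Conditions: 12.5 nM Ras-GMPPNP, 50 nM BRAF RBD, 25 μM CypA, 3 h plus 1.5 h detection. Output: IC50 from TR-FRET ratio.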

Assay [15] addresses T2, NRAS Q61K. Described as above. Type of assay: biochemical. A digest of the protocol: as §7
Assay [16] concerns the target T3, NRAS Q61R. The assay is described as above. The class given is biochemical. A digest of the protocol: as §7
In assay [17] the target is T1, NRAS WT. The description is as above. Type of assay: biochemical. A digest of the protocol:
as §7

Assay [18] deals with NCI-H358 (K-Ras G12C). As to the kind of experiment: CellTiter-Glo cell viability assay, NCI-H358. The class given is cell-based, human. The note with it: Homo sapiens, NCI-H358, 120 h, 5-day treatment; read-out: H358 Cell Viability assay data (K-Ras G12C, IC50). The essentials:
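Luminescent CellTiter-Glo read-out on day 5 after compound exposure; signal expressed as percent of mean DMSO control; four-parameter logistic fit gives the value.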

Assay [19] addresses K-Ras G12C(GMP-PNP) binding to BRAF RBD (Homo sapiens (Human), UniProt P01116+P62937, G12C). As to the kind of experiment: Disruption of BRAF RBD interaction with K-Ras (FRET / MOA assay), K-Ras G12C. Type of assay: biochemical. The note with it: read-out: KRAS G12C FRET IC50. A digest of the protocol: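 TR-FRET readout: after 3 h compound incubation at 25 °C, anti-His Eu and anti-GST allophycocyanin (10 and 50 nM final) added for a further 1.5 h. Dilution series was 10-point, 3-fold, top 30 μM final. Ras–cyclophilin A ternary complex formation blocks the BRAF RBD interaction; IC50 derived from reduced FRET ratio relative to DMSO.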

For assay [20], the target named is KRAS G12S binding to BRAF RBD (Homo sapiens (Human), UniProt P01116+P62937, G12S). As to the kind of experiment: Ras-Raf disruption/FRET/MOA assay, KRAS G12S. Type of assay: biochemical.
From the text: (§8) Note—The following protocol describes a procedure for monitoring disruption of K-Ras G12C(GMP-PNP) binding to BRAF^RBD by a compound of the invention. This protocol may also be executed substituting other Ras proteins or nucleotides.
as §3
(§9) Compound was present in plate wells as a 10-point 3-fold dilution series starting at a final concentration of 30 μM. After incubation at 25° C. for 3 hours, a mixture of Anti-His Eu—W1024 and anti-GST allophycocyanin was then added to assay sample wells at final concentrations of 10 nM and 50 nM, respectively, and the reaction incubated for an additional 1.5 hours. […] Compounds that facilitate disruption of a K-Ras: RAF complex were identified as those eliciting a decrease in the TR-FRET ratio relative to DMSO control wells.

In assay [21] the target is KRAS G12V binding to BRAF RBD (Homo sapiens (Human), UniProt P01116+P62937, G12V). As to the kind of experiment: Ras-Raf disruption/FRET/MOA assay, KRAS G12V. Type of assay: biochemical. To be noted: read-out: KRAS G12V FRET IC50.
From the text: as §8, §3, §9

For assay [22], the target named is KRAS WT binding to BRAF RBD (Homo sapiens (Human), UniProt P01116+P62937). As to the kind of experiment: Ras-Raf disruption/FRET/MOA assay, KRAS WT. The class given is biochemical.
From the text: Disruption of B-Raf Ras-binding Domain (BRAF^RBD) Interaction with K-Ras by Compounds of the Invention (also called a FRET assay or an MOA assay)
as §8, §3
as §4, with “12.5 nM” for “12.5 nM,”, “of Anti-His” for “of anti-His”

T2 sequence (P01111 whole entry Q61K): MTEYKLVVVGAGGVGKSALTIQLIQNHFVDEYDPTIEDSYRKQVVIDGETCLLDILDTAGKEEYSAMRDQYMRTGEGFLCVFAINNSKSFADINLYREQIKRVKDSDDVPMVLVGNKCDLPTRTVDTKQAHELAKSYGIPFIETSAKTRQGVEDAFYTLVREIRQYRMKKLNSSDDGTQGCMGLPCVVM
T2 sequence (P62937 whole entry): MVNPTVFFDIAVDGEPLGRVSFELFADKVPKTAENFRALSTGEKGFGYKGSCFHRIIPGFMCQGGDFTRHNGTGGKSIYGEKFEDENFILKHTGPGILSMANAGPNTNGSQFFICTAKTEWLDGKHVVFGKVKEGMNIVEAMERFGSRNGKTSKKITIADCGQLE
T3 sequence (P01111 whole entry Q61R): as the sequence (P01111 whole entry Q61K) above, with K61R counted along it
T3 sequence (P62937 whole entry): as the sequence (P62937 whole entry) above
T1 sequence (P01111 whole entry, the tested form may be a part): as the sequence (P01111 whole entry Q61K) above, with K61Q counted along it
T1 sequence (P62937 whole entry, the tested form may be a part): as the sequence (P62937 whole entry) above
Chain of KRAS G12S (P01116 other isoform, or with tags, fused parts or gaps G12S): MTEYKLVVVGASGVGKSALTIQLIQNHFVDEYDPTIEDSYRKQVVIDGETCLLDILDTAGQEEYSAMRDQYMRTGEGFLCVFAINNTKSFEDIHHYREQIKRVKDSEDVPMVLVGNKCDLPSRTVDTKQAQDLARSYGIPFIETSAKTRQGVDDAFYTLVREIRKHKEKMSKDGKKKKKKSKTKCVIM
Chain of KRAS G12S (P62937 whole entry): as the sequence (P62937 whole entry) above
Chain of KRAS G12S binding to BRAF RBD (P01116 other isoform, or with tags, fused parts or gaps G12S): as the sequence (P01116 other isoform, or with tags, fused parts or gaps G12S) above
Chain of KRAS G12S binding to BRAF RBD (P62937 whole entry): as the sequence (P62937 whole entry) above
Chain of KRAS Q61H (P01116 other isoform, or with tags, fused parts or gaps Q61H): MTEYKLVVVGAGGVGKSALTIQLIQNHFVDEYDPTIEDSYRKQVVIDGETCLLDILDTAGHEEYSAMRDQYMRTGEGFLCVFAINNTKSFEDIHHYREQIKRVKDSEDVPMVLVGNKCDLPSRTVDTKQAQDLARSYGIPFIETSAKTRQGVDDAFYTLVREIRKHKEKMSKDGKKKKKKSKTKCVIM
Chain of KRAS Q61H (P62937 whole entry): as the sequence (P62937 whole entry) above
Chain of NRAS G12C (P01111 whole entry G12C): as the sequence (P01111 whole entry Q61K) above, with G12C, K61Q counted along it
Chain of NRAS G12C (P62937 whole entry): as the sequence (P62937 whole entry) above
Chain of K-Ras G12C(GMP-PNP) binding to BRAF RBD (P01116 other isoform, or with tags, fused parts or gaps G12C): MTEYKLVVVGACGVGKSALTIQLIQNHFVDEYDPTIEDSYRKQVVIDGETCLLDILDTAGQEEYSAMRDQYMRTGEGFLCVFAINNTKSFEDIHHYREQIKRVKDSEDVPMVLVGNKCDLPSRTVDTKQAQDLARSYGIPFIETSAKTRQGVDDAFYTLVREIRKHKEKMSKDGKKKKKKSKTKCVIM
Chain of K-Ras G12C(GMP-PNP) binding to BRAF RBD (P62937 whole entry): as the sequence (P62937 whole entry) above
Chain of KRAS G12C (P01116-2 other isoform, or with tags, fused parts or gaps G12C): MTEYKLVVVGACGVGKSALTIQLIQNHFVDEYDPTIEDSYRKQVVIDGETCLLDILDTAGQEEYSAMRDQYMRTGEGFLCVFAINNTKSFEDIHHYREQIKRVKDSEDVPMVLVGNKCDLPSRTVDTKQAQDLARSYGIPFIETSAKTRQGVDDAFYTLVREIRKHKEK
Chain of KRAS G12C (P62937 whole entry): as the sequence (P62937 whole entry) above
Chain of KRAS G12V (P01116 other isoform, or with tags, fused parts or gaps G12V): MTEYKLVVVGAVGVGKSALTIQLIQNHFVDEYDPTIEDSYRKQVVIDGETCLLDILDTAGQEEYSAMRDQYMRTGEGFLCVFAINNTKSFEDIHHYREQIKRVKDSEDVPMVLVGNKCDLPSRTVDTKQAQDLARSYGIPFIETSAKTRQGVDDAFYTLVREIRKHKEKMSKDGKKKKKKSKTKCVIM
Chain of KRAS G12V (P62937 whole entry): as the sequence (P62937 whole entry) above
Chain of KRAS G12V binding to BRAF RBD (P01116 other isoform, or with tags, fused parts or gaps G12V): as the sequence (P01116 other isoform, or with tags, fused parts or gaps G12V) above
Chain of KRAS G12V binding to BRAF RBD (P62937 whole entry): as the sequence (P62937 whole entry) above
Chain of KRAS WT (P01116 other isoform, or with tags, fused parts or gaps): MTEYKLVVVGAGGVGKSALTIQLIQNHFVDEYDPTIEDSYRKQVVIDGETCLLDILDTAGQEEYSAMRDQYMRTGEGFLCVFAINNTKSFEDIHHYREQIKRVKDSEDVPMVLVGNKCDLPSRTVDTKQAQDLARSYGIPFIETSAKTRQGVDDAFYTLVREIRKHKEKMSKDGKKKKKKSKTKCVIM
Chain of KRAS WT (P62937 whole entry): as the sequence (P62937 whole entry) above
Chain of KRAS WT binding to BRAF RBD (P01116 other isoform, or with tags, fused parts or gaps): as the sequence (P01116 other isoform, or with tags, fused parts or gaps) above
Chain of KRAS WT binding to BRAF RBD (P62937 whole entry, the tested form may be a part): as the sequence (P62937 whole entry) above
Chain of KRAS G13D (P01116 other isoform, or with tags, fused parts or gaps G13D): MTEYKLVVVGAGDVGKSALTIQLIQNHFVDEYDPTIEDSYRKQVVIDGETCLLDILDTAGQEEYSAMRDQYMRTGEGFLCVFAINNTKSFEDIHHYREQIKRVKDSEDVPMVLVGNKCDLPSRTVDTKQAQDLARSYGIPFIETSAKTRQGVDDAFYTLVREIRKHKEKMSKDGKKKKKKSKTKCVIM
Chain of KRAS G13D (P62937 whole entry): as the sequence (P62937 whole entry) above

As a reminder, the IC50 is the point on the concentration scale where inhibition reaches its midpoint. Take `CCn1c(-c2cccnc2[C@H](C)OC)c2c3cc(ccc31)-c1cc(O)cc(c1)C[C@H](NC(=O)[C@H](C(C)C)N(C)C(=O)[C@H]1CCCN(C(=O)[C@@H]3CN3)C1)C(=O)N1CCC[C@H](N1)C(=O)OCC(C)(C)C2` (atropisomer, axis not shown) [Example 238]: the IC50 lay within 10 to 100 nM in [1], 100 to 1000 nM in assay [2] and 100 to 1000 nM in [3].

Turning to `CCn1c(-c2cccnc2[C@H](C)OC)c2c3cc(ccc31)-c1csc(n1)C[C@H](NC(=O)N1CC[C@@H]1COC)C(=O)N1CCC[C@H](N1)C(=O)OCC(C)(C)C2` [Compound A264], the IC50 in [4] was in the range of 100 to 1000 nM; in assay [5], 100 to 1000 nM; in [6] it was 10 to 100 nM; in [7], 100 to 1000 nM; in assay [8] it was 100 to 1000 nM; in assay [9], 10 to 100 nM. For the same compound, the IC50 was in the range of 100 to 1000 nM in assay [10]; 100 to 1000 nM in assay [11]; 100 to 1000 nM in assay [12]; 100 to 1000 nM in [13]; 10 to 100 nM in [14]; 100 to 1000 nM in assay [15]. The IC50 lay in the range of 100 to 1000 nM in [16]; 100 to 1000 nM in [17]; 10 to 100 nM in [18]; 10 to 100 nM in assay [19]; 10 to 100 nM in [20]; 10 to 100 nM in assay [21]. In addition, the IC50 in assay [22] was in the range of 10 to 100 nM.
